In patent publication US5350864A, “Aminoalkylcarbamyl derivatives of forskolin as intermediates for the synthesis of useful forskolin derivatives” (The United States of America as represented by the …, priority 1990, dated 1994):
Entries after “also recorded” stand apart in the source; their conditions may differ. Read-outs that look alike come from different tables or passages of the source. One block for each compound: values may come before it.

Key:
adenylate cyclase [1] = conditions: literature; cited from earlier work
adenylate cyclase [2] = conditions: literature; cited from earlier work; remark: listed apart in the source
[3] = mildly basic conditions; literature; cited from earlier work
adenylate cyclase [4] = test: Filtration binding assay, ^125 I-labelled derivative 19 (6-^125 I-HPP-Fsk) to bovine brain membranes; conditions: bovine brain membranes, 20° C., 60 min
Text: Derivative 19 (6-^125 I-HPP-Fsk) was used to develop a binding assay for adenylate cyclase (Example 4). […] Therefore, a filtration assay can be used to separate the bound from free ligand and determine the amount of high affinity binding. […] Analogs of forskolin that activate adenylate cyclase inhibit the binding of 6-^125 I-HPP-Fsk to membranes. The ability of an agent to inhibit 6-^125 I-HPP-Fsk binding to membranes is therefore indicative of its ability to stimulate adenylate cyclase.
Binding of 6-^125 I-HPP-Fsk to Membranes--Crude membranes from bovine brain were incubated for 60 minutes at […] 20° C. with 20,000 cpm of 6-^125 I-HPP-Fsk. Binding equilibrium was reached by 45 minutes and was constant for at least 2 hours (data not shown). The incubations were carried out at 20° C. for 60 minutes in 12×75 glass test tubes in a total volume of 0.4 mL […] Tris-HCl buffer, pH 7.4. The membranes (0.40 mg/tube) were incubated in the presence of 5 mM MgCl2 and 10 mM NaF. The assay was terminated by the addition of 5 mL of cold Tris-HCl buffer to the tubes and rapid filtration over Whatman GF/C filters using a Brandel cell harvester. The assay was terminated as described above and the filters counted in a gamma counter. The nonspecific binding was calculated as the amount of label not displaced by 20 uM forskolin. The non specific binding was about 20% of the total bound.

glucose transporter [5] = target: T1, glucose transporter (Homo sapiens, UniProt P11166); test: Filtration binding assay, ^125 I-labelled derivative 8 (7-^125 I-HPP-Fsk) to human red blood cell membranes
T1 construct: Crude membranes from human red blood cells; from tissue; host or cells: human red blood cells, membranes
T1 sequence (P11166 1-492): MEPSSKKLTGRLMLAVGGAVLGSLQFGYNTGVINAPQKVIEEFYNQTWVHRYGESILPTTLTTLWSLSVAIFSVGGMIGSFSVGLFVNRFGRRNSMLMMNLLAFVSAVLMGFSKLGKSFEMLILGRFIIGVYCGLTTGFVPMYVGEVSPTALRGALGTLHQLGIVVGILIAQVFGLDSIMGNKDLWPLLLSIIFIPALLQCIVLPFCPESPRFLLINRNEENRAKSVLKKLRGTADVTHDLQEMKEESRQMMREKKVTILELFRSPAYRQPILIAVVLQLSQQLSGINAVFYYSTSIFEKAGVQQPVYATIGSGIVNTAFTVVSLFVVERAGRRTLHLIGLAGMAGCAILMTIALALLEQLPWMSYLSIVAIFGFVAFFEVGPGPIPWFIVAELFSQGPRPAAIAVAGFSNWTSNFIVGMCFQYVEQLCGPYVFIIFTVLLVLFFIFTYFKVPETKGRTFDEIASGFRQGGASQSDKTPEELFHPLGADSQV
Description: Binding of 7-^125 IHPP-Fsk to Membranes--Crude membranes from human red blood cells were incubated for 60 minutes at 20° C. with 20,000 cpm of 7-^125 IHPP-Fsk. […] The incubations were carried out at 20° C. for 60 minutes in 12×75 glass test tubes in a total volume of 0.4 mL 50 mM Tris-HCl buffer, pH 7.4. The assay was terminated by the addition of 4 mL of cold Tris-HCl buffer to the tubes at rapid filtration over Whatman GF/C filters using a Brandel cell harvester. The assay was terminated as described above and the filters counted in a gamma counter. The nonspecific binding was calculated as the amount of label not displaced by 20 μM forskolin.

glucose transporter [6] = test: Binding of 7-^125 I-HPP-Fsk to bovine brain
Text: (§1) 7-^125 I-HPP-Fsk also binds with high affinity to other tissues including bovine brain, rat heart, rat muscle, and human platelets. The binding of 7-^125 I-HPP-Fsk to these tissues is inhibited by D-glucose and cytochalasin B. Therefore, 7-^125 I-HPP-Fsk binds with high affinity to the glucose transporter in diverse tissues.

glucose transporter [7] = test: Binding of 7-^125 I-HPP-Fsk to rat heart
Text: as §1

glucose transporter [8] = test: Binding of 7-^125 I-HPP-Fsk to rat muscle
Text: as §1

glucose transporter [9] = target: T2, glucose transporter (Homo sapiens, UniProt P11169); test: Binding of 7-^125 I-HPP-Fsk to human platelets
T2 construct: other tissues including bovine brain, rat heart, rat muscle, and human platelets; from tissue; host or cells: human platelets
T2 sequence (P11169 1-496): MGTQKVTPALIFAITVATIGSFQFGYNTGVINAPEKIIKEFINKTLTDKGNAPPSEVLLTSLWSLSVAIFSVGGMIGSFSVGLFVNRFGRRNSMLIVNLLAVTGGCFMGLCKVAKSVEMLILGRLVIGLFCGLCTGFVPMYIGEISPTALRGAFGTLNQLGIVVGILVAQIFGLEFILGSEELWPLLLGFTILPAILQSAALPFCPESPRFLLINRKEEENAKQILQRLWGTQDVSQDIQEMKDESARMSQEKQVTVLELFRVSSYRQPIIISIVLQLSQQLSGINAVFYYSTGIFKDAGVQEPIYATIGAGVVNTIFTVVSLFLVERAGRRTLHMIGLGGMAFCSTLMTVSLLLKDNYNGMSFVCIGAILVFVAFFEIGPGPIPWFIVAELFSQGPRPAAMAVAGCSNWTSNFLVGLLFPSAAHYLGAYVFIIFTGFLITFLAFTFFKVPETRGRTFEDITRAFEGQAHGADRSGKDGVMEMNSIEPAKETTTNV
Text: as §1

glucose transporter [10] = target: T1, glucose transporter; test: Photolabelling of human red blood cell membranes, SDS gel electrophoresis; format: binding
Description: Derivative 9 (7-AIPPS-Fsk) is incubated with human red blood cell membranes, photolyzed, and then the radioactive proteins were analyzed by SDS gel electrophoresis.

adenylate cyclase [11] = test: Photolabelling of bovine brain membranes, SDS gel electrophoresis; format: binding
Description: Derivative 20 (6-AIPPS-Fsk) is incubated with partially purified preparations of bovine brain adenylate cyclase, photolyzed, and then the radioactive proteins are analyzed by SDS gel electrophoresis. […] 6-AIPPS-Fsk can also label adenylate cyclase in crude membranes. 6-AIPPS-Fsk is incubated with bovine brain membranes, photolyzed, and the radioactive proteins are analyzed by SDS gel electrophoresis.

P-glycoprotein = P-glycoprotein (Homo sapiens, UniProt P08183)
Chain of P-glycoprotein (P08183 whole entry): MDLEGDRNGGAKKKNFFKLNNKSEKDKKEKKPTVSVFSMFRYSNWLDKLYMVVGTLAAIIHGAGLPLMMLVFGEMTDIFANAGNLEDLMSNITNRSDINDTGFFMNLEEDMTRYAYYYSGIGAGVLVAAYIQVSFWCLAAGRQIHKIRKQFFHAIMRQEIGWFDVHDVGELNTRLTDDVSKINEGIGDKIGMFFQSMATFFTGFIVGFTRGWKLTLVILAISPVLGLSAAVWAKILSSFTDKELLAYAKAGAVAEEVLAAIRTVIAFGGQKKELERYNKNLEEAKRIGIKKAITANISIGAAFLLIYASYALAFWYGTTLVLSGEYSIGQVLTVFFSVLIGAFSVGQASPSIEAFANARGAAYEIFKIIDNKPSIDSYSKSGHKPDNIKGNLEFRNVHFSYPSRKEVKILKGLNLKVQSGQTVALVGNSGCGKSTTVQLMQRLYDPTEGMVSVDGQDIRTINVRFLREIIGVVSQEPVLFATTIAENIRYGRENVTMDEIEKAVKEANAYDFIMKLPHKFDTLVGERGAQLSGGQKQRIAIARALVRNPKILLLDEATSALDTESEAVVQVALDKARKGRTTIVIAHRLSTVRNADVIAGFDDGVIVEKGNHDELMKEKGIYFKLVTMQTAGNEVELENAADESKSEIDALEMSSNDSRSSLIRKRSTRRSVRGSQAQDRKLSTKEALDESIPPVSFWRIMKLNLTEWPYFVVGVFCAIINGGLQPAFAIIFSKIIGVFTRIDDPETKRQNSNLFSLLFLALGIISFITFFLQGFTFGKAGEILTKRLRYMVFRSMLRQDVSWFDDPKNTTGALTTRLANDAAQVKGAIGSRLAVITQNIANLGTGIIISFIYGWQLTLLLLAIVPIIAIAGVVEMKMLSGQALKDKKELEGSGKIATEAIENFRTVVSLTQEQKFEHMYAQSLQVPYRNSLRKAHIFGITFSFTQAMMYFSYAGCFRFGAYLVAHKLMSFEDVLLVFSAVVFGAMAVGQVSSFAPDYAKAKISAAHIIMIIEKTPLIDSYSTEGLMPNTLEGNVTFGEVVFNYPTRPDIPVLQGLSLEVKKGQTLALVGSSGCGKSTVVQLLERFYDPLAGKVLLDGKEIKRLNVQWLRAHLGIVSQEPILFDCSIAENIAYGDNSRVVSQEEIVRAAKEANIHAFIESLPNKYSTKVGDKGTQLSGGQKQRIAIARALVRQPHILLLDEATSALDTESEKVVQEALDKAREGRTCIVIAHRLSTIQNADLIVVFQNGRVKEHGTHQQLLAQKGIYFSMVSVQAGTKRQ

Structure (SMILES): C=C[C@@]1(C)CC(=O)[C@]2(O)[C@@]3(C)[C@@H](O)CCC(C)(C)[C@@H]3[C@H](OC(C)=O)[C@H](O)[C@@]2(C)O1 [6-acetyl-7-desacetylforskolin]
activation of adenylate cyclase (adenylate cyclase [1]): less potent than forskolin

Structure (SMILES): C=C[C@@]1(C)CC(=O)[C@]2(O)[C@@]3(C)[C@@H](O)CCC(C)(C)[C@@H]3[C@H](O)[C@H](OC(=O)CCl)[C@@]2(C)O1 [7-desacetyl-7-chloroacetylforskolin]
block of forskolin binding site (adenylate cyclase [2]): block the forskolin binding site on adenylate cyclase
susceptibility to hydrolysis and rearrangement [3]: susceptible to hydrolysis and rearrangement under mildly basic conditions

Structure (SMILES): C=C[C@@]1(C)CC(=O)[C@]2(O)[C@@]3(C)[C@@H](O)CCC(C)(C)[C@@H]3[C@H](O)[C@H](OC(=O)CC)[C@@]2(C)O1 [7-desacetyl-7-propionylforskolin]
activation of adenylate cyclase (adenylate cyclase [1]): active at adenylate cyclase

Structure (SMILES): C=C[C@@]1(C)CC(=O)[C@]2(O)[C@@]3(C)[C@@H](O)CCC(C)(C)[C@@H]3[C@H](O)[C@H](O)[C@@]2(C)O1 [7-desacetylforskolin]
activation of adenylate cyclase (adenylate cyclase [1]): less potent than forskolin

Structure (SMILES): C=C[C@@]1(C)CC(=O)[C@]2(O)[C@@]3(C)[C@@H](O)CCC(C)(C)[C@@H]3[C@H](O)[C@H](OC(=O)CBr)[C@@]2(C)O1 [7-descacetyl-7-bromoacetylforskolin]
block of forskolin binding site (adenylate cyclase [2]): block the forskolin binding site on adenylate cyclase
susceptibility to hydrolysis and rearrangement [3]: susceptible to hydrolysis and rearrangement under mildly basic conditions

Structure (SMILES): C=C[C@@]1(C)CC(O)[C@]2(O)[C@@]3(C)[C@@H](O)CCC(C)(C)[C@@H]3[C@H](O)[C@H](OC(C)=O)[C@@]2(C)O1 (stereo partly drawn) [11β-hydroxyforskolin]
activation of adenylate cyclase (adenylate cyclase [1]): less potent than forskolin

Structure (SMILES): CC[C@@]1(C)CC(=O)[C@]2(O)[C@@]3(C)[C@@H](O)CCC(C)(C)[C@@H]3[C@H](O)[C@H](OC(C)=O)[C@@]2(C)O1 [14,15-dihydroforskolin]
activation of adenylate cyclase (adenylate cyclase [1]): less potent than forskolin

Structure (SMILES): OC[C@H]1OC(O)[C@H](O)[C@@H](O)[C@@H]1O (stereo partly drawn) [D-glucose]
inhibition of 6-^125 I-HPP-Fsk binding (adenylate cyclase [4]): not inhibited
inhibition of 7-^125 I-HPP-Fsk binding (glucose transporter [5]): inhibited; also recorded: inhibition of binding
inhibition of 7-^125 I-HPP-Fsk binding (glucose transporter [6]): inhibited
inhibition of 7-^125 I-HPP-Fsk binding (glucose transporter [7]): inhibited
inhibition of 7-^125 I-HPP-Fsk binding (glucose transporter [8]): inhibited
inhibition of 7-^125 I-HPP-Fsk binding (glucose transporter [9]): inhibited
inhibition of labelling by 7-AIPPS-Fsk (glucose transporter [10]): inhibited

time binding was constant (glucose transporter [5]; 20° C.): at least 2 hours
time to binding equilibrium (glucose transporter [5]; 20° C.): ≤ 45 min
nonspecific binding (of total bound) (glucose transporter [5]; label not displaced by 20 μM forskolin): about 20%
Kd (glucose transporter [5]; membranes from human red blood cells, read-out: affinity of 7-^125 I-HPP-Fsk): 30 nM
binding affinity (glucose transporter [6]): high affinity
binding affinity (glucose transporter [7]): high affinity
binding affinity (glucose transporter [8]): high affinity
binding affinity (glucose transporter [9]): high affinity
Structure (SMILES): C=C[C@@]1(C)CC(=O)[C@]2(O)[C@@]3(C)[C@@H](O)CCC(C)(C)[C@@H]3[C@H](O)[C@H](OC(=O)NCCNC(=O)CCc3ccc(O)c([125I])c3)[C@@]2(C)O1 [Derivative 8]
binding affinity / selectivity (glucose transporter [5]; human red blood cell glucose transporter, listed as 7-^125 I-HPP-Fsk): binds to the human red blood cell glucose transporter with high affinity; also recorded: will not detect adenylate cyclase

Structure (SMILES): C=C[C@@]1(C)CC(=O)[C@]2(O)[C@@]3(C)[C@@H](O)CCC(C)(C)[C@@H]3[C@H](O)[C@H](OC(=O)NCCNC(=O)CCc3ccc(N=[N+]=[N-])c([125I])c3)[C@@]2(C)O1 [Derivative 9]
photolabelling of glucose transporter (glucose transporter [10]; listed as 7-AIPPS-Fsk): labels the glucose transporter; also recorded: more potent at labelling the glucose transporter in human red blood cell membranes than 6-AIPPS-Fsk
photolabelling of adenylate cyclase (adenylate cyclase [11]): less efficient at labelling the adenylate cyclase than the 6-AIPPS-Fsk

Structure (SMILES): C=C[C@@]1(C)CC(=O)[C@]2(O)[C@@]3(C)[C@@H](O)CCC(C)(C)[C@@H]3[C@H](OC(=O)NCCNC(=O)CCc3ccc(O)cc3)[C@H](OC(C)=O)[C@@]2(C)O1 [Derivative 21]
inhibition of labelling by 6-AIPPS-Fsk (P-glycoprotein): more potent at inhibiting the labelling by 6-AIPPS-Fsk than forskolin

Structure (SMILES): OC[C@@H]1OC(O)[C@@H](O)[C@H](O)[C@H]1O (stereo partly drawn) [L-glucose]
inhibition of 7-^125 I-HPP-Fsk binding (glucose transporter [5]): not L-glucose

inhibition of 7-^125 I-HPP-Fsk binding (glucose transporter [5]; human red blood cell membranes): relatively potent
Structure (SMILES): O=C(CCc1ccc(O)cc1)c1c(O)cc(O)cc1O[C@@H]1O[C@H](CO)[C@@H](O)[C@H](O)[C@H]1O [phloridzin]
